The test system of this assay is HER2 overexpressing cells (SK-BR-3, BT-474, N87). Put plainly: Drug combinations with PB4188 in vitro (checkerboard, isobolograms). The following applies: HER2 amplified cells, HRG. It is filed as cell-based, human. Here is the method:
Moreover, combination with chemotherapeutic drugs and cyclin inhibitors were tested. Combinations were tested on HER2 overexpressing cells growing in the presence of HRG in […]® (SK-BR-3 and BT-474) or in the presence of HRG stress concentrations (N87 and SK-BR-3 as described in proliferation assays). The inhibitory effect of drug combinations was tested by imaging or by measuring proliferation using Alamar Blue as described herein before. […] The extent of growth inhibition obtained with each combination was calculated. […] The inhibition values of the combination experiments were used by CHALICE™ Analyzer software to generate the isobolograms.

In the case of `Cc1nc(NC(=O)N2CCC[C@H]2C(N)=O)sc1-c1ccnc(C(C)(C)C(F)(F)F)c1` [BYL719], the “Drug combination with PB4188 (isobologram analysis)” value is given as “synergistic”.

In the case of `NC1(c2ccc(-c3nc4ccn5c(=O)[nH]nc5c4cc3-c3ccccc3)cc2)CCC1` [MK-2206], the “Drug combination with PB4188 (isobologram analysis)” value is “synergistic”.

As for `CO[C@H]1C[C@@H]2CC[C@@H](C)[C@@](O)(O2)C(=O)C(=O)N2CCCC[C@H]2C(=O)O[C@H]([C@H](C)C[C@@H]2CC[C@@H](OCCO)[C@H](OC)C2)CC(=O)[C@H](C)/C=C(\C)[C@@H](O)[C@@H](OC)C(=O)[C@H](C)C[C@H](C)/C=C/C=C/C=C/1C` [everolimus], the “Drug combination with PB4188 (isobologram analysis)” value is given as “synergistic”.

`CS(=O)(=O)CCNCc1ccc(-c2ccc3ncnc(Nc4ccc(OCc5cccc(F)c5)c(Cl)c4)c3c2)o1` [lapatinib]: the “Drug combination with PB4188 (isobologram analysis)” value is recorded as “synergistic”.

For `CCOc1cc2ncc(C#N)c(Nc3ccc(OCc4ccccn4)c(Cl)c3)c2cc1NC(=O)/C=C/CN(C)C` [neratinib], the “Drug combination with PB4188 (isobologram analysis)” value was “synergistic”.

With `CC(=O)O[C@H]1C(=O)[C@@]2(C)[C@H]([C@H](OC(=O)c3ccccc3)[C@]3(O)C[C@H](OC(=O)[C@H](O)[C@@H](NC(=O)c4ccccc4)c4ccccc4)C(C)=C1C3(C)C)[C@]1(OC(C)=O)CO[C@@H]1C[C@@H]2O` [paclitaxel], the “Drug combination with PB4188 (isobologram analysis)” value is recorded as “synergistic”.

`O=C(CCCCCCC(=O)Nc1ccccc1)NO` [vorinostat]: the “Drug combination with PB4188 (isobologram analysis)” value is recorded as “synergistic”.

Values taken from patent publication US20230242669A1, “ANTIBODY THAT BINDS ERBB-2 AND ERBB-3” (Merus N.V., priority 2014, published 2023).
